In PMC5291514, “Structure activity relationship and modeling studies of inhibitors of lysine specific demethylase 1” (PLoS ONE, 2017):

target: T1, human MAO-A (Homo sapiens, UniProt P21397); test: Inhibition of MAO-A, MAO-Glo assay kit; assay type: biochemical; conditions: Table 2; 100 nM MAO-A, 60 min
T1 construct: purchased Sigma
T1 sequence (P21397 1-527): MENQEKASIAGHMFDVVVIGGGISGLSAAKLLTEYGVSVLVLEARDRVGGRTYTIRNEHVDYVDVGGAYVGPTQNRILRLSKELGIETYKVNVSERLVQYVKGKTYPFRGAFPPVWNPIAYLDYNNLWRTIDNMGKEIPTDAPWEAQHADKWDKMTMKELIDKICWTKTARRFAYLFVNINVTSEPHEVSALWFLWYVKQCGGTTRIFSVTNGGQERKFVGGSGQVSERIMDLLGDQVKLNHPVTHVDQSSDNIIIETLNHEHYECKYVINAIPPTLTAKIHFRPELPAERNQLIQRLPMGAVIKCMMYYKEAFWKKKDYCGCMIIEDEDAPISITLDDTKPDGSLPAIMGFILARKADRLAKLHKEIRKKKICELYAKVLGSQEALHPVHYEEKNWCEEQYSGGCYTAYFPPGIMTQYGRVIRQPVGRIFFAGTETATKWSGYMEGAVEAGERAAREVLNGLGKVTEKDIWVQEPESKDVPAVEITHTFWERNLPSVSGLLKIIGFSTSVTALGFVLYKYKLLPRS
Procedure: (§1) Inhibition of MAO-A and -B was determined using MAO-Glo assay kit (Promega). Following the manufacturer’s protocol, assays were performed in 384 well white plates (Corning) in the presence of 100 nM MAO-A/-B (Sigma) and MAO substrate. The final volume of each reaction mixture was 20 μL. Reactions were quenched after 60 min by adding reconstituted luciferin detection reagent (20 μL/well). 20 min after addition of detection reagent, the plate was measured in luminescence mode using Beckman DTX-880 microplate reader. IC50 calculation was done similarly.

Compound	IC50
CN1CCN(C(=O)CNC2CC2c2ccc(-c3ccc(F)nc3)cc2)CC1 (racemic) [Compound 2, reference compound]	120000 nM
CN1CCN(C(=O)CNC2CC2c2ccc(Br)cc2)CC1 (racemic) [Compound 3, reference compound]	7300 nM
NC1CC1c1ccc(OCc2ccccc2)cc1 (racemic) [Compound 7]	170 nM
O=C(CNC1CC1c1ccc(Br)cc1)N1CCNCC1 (racemic) [Compound 10]	18100 nM
O=C(CNC1CC1c1ccc(Br)cc1)N1CCCCC1 (racemic) [Compound 11]	260 nM
COc1ccccc1C=NC1CC1c1ccc(Br)cc1 (racemic) [Compound 26]	300 nM
O=C(CNNC1CC1c1ccccc1)N1CCNCC1 (racemic) [Compound 32]	97500 nM
NNC1CC1c1ccccc1 (stereo not drawn) [Compound 31, Trans-phenyl cyclopropyl hydrazine]	40700 nM

target: T2, human MAO-B (Homo sapiens, UniProt P27338); test: Inhibition of MAO-B, MAO-Glo assay kit; assay type: biochemical; conditions: Table 2; 100 nM MAO-B, 60 min
T2 construct: purchased Sigma
T2 sequence (P27338 1-520): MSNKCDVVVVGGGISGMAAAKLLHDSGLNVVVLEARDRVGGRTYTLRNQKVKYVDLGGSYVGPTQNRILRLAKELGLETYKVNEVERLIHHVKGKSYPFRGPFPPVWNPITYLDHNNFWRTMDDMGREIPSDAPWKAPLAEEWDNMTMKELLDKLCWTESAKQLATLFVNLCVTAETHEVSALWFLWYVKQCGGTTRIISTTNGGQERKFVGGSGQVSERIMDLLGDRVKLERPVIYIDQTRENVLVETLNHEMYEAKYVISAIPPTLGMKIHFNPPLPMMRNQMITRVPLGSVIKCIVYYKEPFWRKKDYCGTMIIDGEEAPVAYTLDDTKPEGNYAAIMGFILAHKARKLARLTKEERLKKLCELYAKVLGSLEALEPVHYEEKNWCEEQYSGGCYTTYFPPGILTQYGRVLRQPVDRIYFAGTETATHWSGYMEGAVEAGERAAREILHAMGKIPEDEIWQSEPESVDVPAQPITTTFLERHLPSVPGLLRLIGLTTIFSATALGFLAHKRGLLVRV
Procedure: as §1

Compound	IC50
CN1CCN(C(=O)CNC2CC2c2ccc(-c3ccc(F)nc3)cc2)CC1 (racemic) [Compound 2, reference compound]	480000 nM
CN1CCN(C(=O)CNC2CC2c2ccc(Br)cc2)CC1 (racemic) [Compound 3, reference compound]	16300 nM
NC1CC1c1ccc(OCc2ccccc2)cc1 (racemic) [Compound 7]	350 nM
O=C(CNC1CC1c1ccc(Br)cc1)N1CCNCC1 (racemic) [Compound 10]	23100 nM
O=C(CNC1CC1c1ccc(Br)cc1)N1CCCCC1 (racemic) [Compound 11]	510 nM
COc1ccccc1C=NC1CC1c1ccc(Br)cc1 (racemic) [Compound 26]	400 nM
O=C(CNNC1CC1c1ccccc1)N1CCNCC1 (racemic) [Compound 32]	370000 nM
NNC1CC1c1ccccc1 (stereo not drawn) [Compound 31, Trans-phenyl cyclopropyl hydrazine]	87000 nM

target: T3, recombinant human LSD1 (Homo sapiens, UniProt O60341); test: LSD1 enzyme inhibition, HRP-coupled Amplex red assay; assay type: biochemical; conditions: not given
T3 construct: Human LSD1 catalytic domain, consisting of residues 172–833; GST (N); made in house; host or cells: Escherichia coli BL21-CodonPlus
Procedure: Human LSD1 catalytic domain, consisting of residues 172–833, was expressed in Escherichia coli BL21-CodonPlus strain (Agilent) as a GST fusion protein, by using a pGEX-KG vector. Briefly, the cells were grown to late log phase at 37°C and then were induced overnight with 0.2 mM IPTG at 25°C. Cells were harvested and lysed by French Press in PBS buffer and the supernatant was subjected to an affinity column chromatography using the glutathione sepharose resin. The eluted LSD1 fractions were further purified with ~90% purity by gel filtration on a Superdex 200 column (GE healthcare).
Horseradish peroxidase (HRP)-coupled assay was used for the evaluation of the inhibitors, based on the reaction rate (i.e., amount of the product H2O2) being quantitatively determined by adding HRP and a HRP fluorescence substrate Amplex red.[20] 30 nM LSD1 was incubated with increasing concentrations of a compound in 50 mM phosphate buffer (pH = 7.0 containing 0.01% Brij-35) for 30 min at 25°C. […] The final volume of the reaction is 60 μL. Upon 20 min incubation, 60 μL solution containing HRP (0.01 unit) and Amplex red (80 μM) was added to quench the reaction. The fluorescence of each well was then determined using a Beckman DTX-880 microplate reader (excitation at 535; emission at 595 nm). Data were imported into Prism 5.0 (GraphPad) and the IC50 values were calculated by using the sigmoidal dose response curve fitting in the software. The reported IC50s were the mean values of at least three independent experiments.

Compound	LSD1 inhibitory activity in words
CN(C)c1ccc(C=NC2CC2c2ccc(Br)cc2)cc1 (racemic) [Compound 29]	only modest activities
Brc1ccc(C2CC2N=Cc2ccncc2)cc1 (racemic) [Compound 30]	only modest activities

same assay, conditions: 7 vs 1, 8 vs 2, 9 vs 3

Compound	fold less active against LSD1 than the corresponding compounds 1–3
NC1CC1c1ccc(OCc2ccccc2)cc1 (racemic) [Compound 7]	92 fold

same assay, conditions: LSD1 over MAO-A/-B

Compound	selectivity for LSD1 inhibition
COc1ccccc1C=NC1CC1c1ccc(Br)cc1 (racemic) [Compound 26]	no LSD1 selectivity was observed
O=C(CNNC1CC1c1ccccc1)N1CCNCC1 (racemic) [Compound 32]	> 150 fold

same assay, conditions: Table 1; 30 nM LSD1, 30 min preincubation, 10 μM H3K4Me2 peptide

Compound	IC50
CN1CCN(C(=O)CNC2CC2c2ccc(-c3ccc(F)nc3)cc2)CC1 (racemic) [Compound 2, reference compound]	77 nM
CN1CCN(C(=O)CNC2CC2c2ccc(Br)cc2)CC1 (racemic) [Compound 3, reference compound]	35 nM
CN1CCN(C(=O)CNC2CC2c2ccc(-c3ccc(Cl)nc3)cc2)CC1 (racemic) [Compound 4]	150 nM
CN1CCN(C(=O)CNC2CC2c2ccccc2Br)CC1 (racemic) [Compound 5]	> 100000 nM
CN1CCN(C(=O)CNC2CC2c2cccc(Br)c2)CC1 (racemic) [Compound 6]	> 100000 nM
NC1CC1c1ccc(OCc2ccccc2)cc1 (racemic) [Compound 7]	910 nM
O=C(CNC1CC1c1ccc(Br)cc1)N1CCNCC1 (racemic) [Compound 10]	64 nM
O=C(CNC1CC1c1ccc(Br)cc1)N1CCCCC1 (racemic) [Compound 11]	620 nM
O=C(CNC1CC1c1ccc(Br)cc1)N1CCCC1 (racemic) [Compound 12]	3600 nM
O=C(CNC1CC1c1ccccc1)N1CCNCC1 (racemic) [Compound 13]	190 nM
O=C(CNC1CC1c1ccccc1)N1CCCCC1 (racemic) [Compound 14]	1300 nM
Brc1ccc(C2CC2NCC2CCNCC2)cc1 (racemic) [Compound 15]	260 nM
Oc1ccc(CNC2CC2c2ccc(Br)cc2)cc1 (racemic) [Compound 18]	94000 nM
Nc1ccc(CNC2CC2c2ccc(Br)cc2)cc1 (racemic) [Compound 19]	> 100000 nM
CN(C)c1ccc(CNC2CC2c2ccc(Br)cc2)cc1 (racemic) [Compound 20]	71000 nM
Brc1ccc(C2CC2NCc2ccncc2)cc1 (racemic) [Compound 21]	> 100000 nM
CC(=O)NC1CC1c1ccc(Br)cc1 (racemic) [Compound 22]	15400 nM
O=C(Nc1ccccc1)NC1CC1c1ccc(Br)cc1 (racemic) [Compound 23]	7400 nM
Brc1ccc(C2CC2N=Cc2ccccc2)cc1 (racemic) [Compound 24]	15600 nM
Brc1ccc(C=NC2CC2c2ccc(Br)cc2)cc1 (racemic) [Compound 25]	1200 nM
COc1ccccc1C=NC1CC1c1ccc(Br)cc1 (racemic) [Compound 26]	740 nM
COc1cccc(C=NC2CC2c2ccc(Br)cc2)c1 (racemic) [Compound 27]	900 nM
CN(C)c1ccc(C=NC2CC2c2ccc(Br)cc2)cc1 (racemic) [Compound 29]	11000 nM
Brc1ccc(C2CC2N=Cc2ccncc2)cc1 (racemic) [Compound 30]	14000 nM
O=C(CNNC1CC1c1ccccc1)N1CCNCC1 (racemic) [Compound 32]	670 nM
O=C(NNC1CC1c1ccccc1)N1CCNCC1 (racemic) [Compound 33]	84000 nM
Brc1ccc(C2CC2NNCC2CCNCC2)cc1 (racemic) [Compound 34]	1700 nM
Brc1ccc(C2CC2NCc2ccccc2)cc1 (stereo not shown) [Compound 17]	5000 nM
NNC1CC1c1ccccc1 (stereo not drawn) [Compound 31, Trans-phenyl cyclopropyl hydrazine]	5800 nM
CN1CCN(C(=O)CNCC#Cc2ccccc2)CC1 [Compound 35, 1-(4-methylpiperazin-1-yl)-2-((3-phenylprop-2-yn-1-yl)amino)ethan-1-one]	36400 nM

same assay, conditions: Table 2

Compound	IC50
CN1CCN(C(=O)CNC2CC2c2ccc(-c3ccc(F)nc3)cc2)CC1 (racemic) [Compound 2, reference compound]	77 nM
CN1CCN(C(=O)CNC2CC2c2ccc(Br)cc2)CC1 (racemic) [Compound 3, reference compound]	35 nM
NC1CC1c1ccc(OCc2ccccc2)cc1 (racemic) [Compound 7]	910 nM
O=C(CNC1CC1c1ccc(Br)cc1)N1CCNCC1 (racemic) [Compound 10]	64 nM
O=C(CNC1CC1c1ccc(Br)cc1)N1CCCCC1 (racemic) [Compound 11]	620 nM
COc1ccccc1C=NC1CC1c1ccc(Br)cc1 (racemic) [Compound 26]	740 nM
O=C(CNNC1CC1c1ccccc1)N1CCNCC1 (racemic) [Compound 32]	670 nM

same assay, conditions: Table 2; LSD1 versus MAO-A and -B

Compound	Selectivity index for LSD1
CN1CCN(C(=O)CNC2CC2c2ccc(-c3ccc(F)nc3)cc2)CC1 (racemic) [Compound 2, reference compound]	>1,500
CN1CCN(C(=O)CNC2CC2c2ccc(Br)cc2)CC1 (racemic) [Compound 3, reference compound]	>208
NC1CC1c1ccc(OCc2ccccc2)cc1 (racemic) [Compound 7]	<0.38
O=C(CNC1CC1c1ccc(Br)cc1)N1CCNCC1 (racemic) [Compound 10]	>280
O=C(CNC1CC1c1ccc(Br)cc1)N1CCCCC1 (racemic) [Compound 11]	<0.82
COc1ccccc1C=NC1CC1c1ccc(Br)cc1 (racemic) [Compound 26]	<0.54
O=C(CNNC1CC1c1ccccc1)N1CCNCC1 (racemic) [Compound 32]	>145
NNC1CC1c1ccccc1 (stereo not drawn) [Compound 31, Trans-phenyl cyclopropyl hydrazine]	>7

same assay, conditions: comparator compound 10

Compound	fold less active against LSD1 than 10
O=C(CNC1CC1c1ccc(Br)cc1)N1CCCCC1 (racemic) [Compound 11]	~ 10 ×
O=C(CNC1CC1c1ccc(Br)cc1)N1CCCC1 (racemic) [Compound 12]	~56 ×

same assay, conditions: comparator compound 13

Compound	fold less active against LSD1 than cyclopropylamine analog 13
O=C(CNNC1CC1c1ccccc1)N1CCNCC1 (racemic) [Compound 32]	~ 3 ×

same assay, conditions: comparator compound 14

Compound	fold more active against LSD1 than 14
O=C(CNC1CC1c1ccccc1)N1CCNCC1 (racemic) [Compound 13]	~ 7 fold

same assay, conditions: comparator compound 15

Compound	fold less active against LSD1 than cyclopropylamine analog 15
Brc1ccc(C2CC2NNCC2CCNCC2)cc1 (racemic) [Compound 34]	~ 7 ×

same assay, conditions: comparator compound 24

Compound	fold more active against LSD1 than compound 24
Brc1ccc(C=NC2CC2c2ccc(Br)cc2)cc1 (racemic) [Compound 25]	> 10 ×
COc1ccccc1C=NC1CC1c1ccc(Br)cc1 (racemic) [Compound 26]	> 10 ×
COc1cccc(C=NC2CC2c2ccc(Br)cc2)c1 (racemic) [Compound 27]	> 10 ×

same assay, conditions: comparator compound 31

Compound	fold enhanced LSD1 activity over 31
O=C(CNNC1CC1c1ccccc1)N1CCNCC1 (racemic) [Compound 32]	~ 9 fold

target: MAO-A and -B; test: Inhibition of MAO-A/-B, MAO-Glo assay kit, one range given over both enzymes; assay type: biochemical, human; conditions: range over both enzymes and the named compounds; read-out: IC50 against MAO-A and -B
Procedure: as §1

Compound	IC50
NC1CC1c1ccc(OCc2ccccc2)cc1 (racemic) [Compound 7]	170 to 3100 nM
